Our source for the EC50 values is PMC5696599, “Confirming a Role for α9nAChRs and SK Potassium Channels in Type II Hair Cells of the Turtle Posterior Crista” (Frontiers in Cellular Neuroscience, 2017).

The target in the test is T1, α9*nAChR (alpha9-containing nicotinic ACh receptor) (Trachemys scripta, UniProt Q3L0X1).
T1 construct: gene CHRNA9; native receptor in type II hair cells, intact split-epithelial posterior crista; read-out through coupled SK potassium current
Nature of the test: whole-cell patch clamp of type II hair cells, peak ACh-sensitive outward current, Hill fit. The class given is cell-based. The conditions noted are these: agonist; coupled SK current read-out at −17 mV; intact epithelium with acetylcholinesterase and diffusion barriers; pH 7.6; 21–25°C. (In general: Patch clamp records ionic current or voltage across a cell membrane.)

The term EC50 denotes the concentration giving half of the maximal effect.

Molecules are shown by their SMILES.

T1 sequence (Q3L0X1 28-490): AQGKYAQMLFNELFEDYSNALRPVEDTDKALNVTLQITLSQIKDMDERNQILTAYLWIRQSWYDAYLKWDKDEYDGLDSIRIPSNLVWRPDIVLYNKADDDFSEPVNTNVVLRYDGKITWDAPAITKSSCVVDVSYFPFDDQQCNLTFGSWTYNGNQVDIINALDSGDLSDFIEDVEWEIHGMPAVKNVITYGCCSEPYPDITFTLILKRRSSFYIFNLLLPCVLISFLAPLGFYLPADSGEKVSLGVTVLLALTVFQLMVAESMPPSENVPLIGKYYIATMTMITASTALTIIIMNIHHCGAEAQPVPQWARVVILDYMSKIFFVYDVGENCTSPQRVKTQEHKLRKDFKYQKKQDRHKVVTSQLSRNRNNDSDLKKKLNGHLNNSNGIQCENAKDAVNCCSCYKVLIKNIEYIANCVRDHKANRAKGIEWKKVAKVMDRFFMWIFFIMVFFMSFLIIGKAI
T1 sequence (UPI001552A461 25-505 partner): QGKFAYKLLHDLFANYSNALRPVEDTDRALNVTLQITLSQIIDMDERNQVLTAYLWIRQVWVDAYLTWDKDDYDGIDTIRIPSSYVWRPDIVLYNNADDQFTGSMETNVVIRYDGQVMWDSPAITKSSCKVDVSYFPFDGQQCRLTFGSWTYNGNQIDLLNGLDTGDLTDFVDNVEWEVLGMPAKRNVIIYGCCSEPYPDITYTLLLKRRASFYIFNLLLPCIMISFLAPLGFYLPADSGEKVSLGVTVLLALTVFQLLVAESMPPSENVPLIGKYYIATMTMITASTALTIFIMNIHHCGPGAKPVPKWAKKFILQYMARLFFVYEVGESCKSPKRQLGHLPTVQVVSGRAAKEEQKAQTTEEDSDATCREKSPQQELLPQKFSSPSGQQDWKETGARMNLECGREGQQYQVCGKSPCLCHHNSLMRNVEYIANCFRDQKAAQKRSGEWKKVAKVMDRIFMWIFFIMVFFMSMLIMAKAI

Turning to `CC(=O)OCC[N+](C)(C)C` [acetylcholine], the EC50 was 76 µM.
